Laboratory results as given in the CheMixHub viscosity set.
“And” between values parts separate entries of the source, which are not always exact repeats. Equal values may be shown once.

Experiment: xn = mol fraction of the nth substance listed

C=CC(C)O (centres undefined) + O
viscosity [mPa·s], 101.32 kPa
Details | x1 = 0.1003 | x1 = 0.2 | x1 = 0.3004 | x1 = 0.4 | x1 = 0.5013 | x1 = 0.601 | x1 = 0.7012 | x1 = 0.8046 | x1 = 0.9031
308.15 K | 1.553 | 1.858 | 1.854 | 1.765 | 1.682 | 1.566 | 1.457 | 1.387 | 1.331
313.15 K | 1.347 | 1.617 | 1.612 | 1.535 | 1.461 | 1.369 | 1.28 | 1.231 | 1.171
318.15 K | 1.189 | 1.405 | 1.404 | 1.345 | 1.281 | 1.209 | 1.13 | 1.08 | 1.044
323.15 K | 1.049 | 1.243 | 1.24 | 1.187 | 1.138 | 1.078 | 1.007 | 0.9691 | 0.9323

CCCC(=O)[O-].[Na+] + O
298.15 K, 101.33 kPa
Details | viscosity [mPa·s]
x1 = 0.008927 | 1.136
x1 = 0.0177 | 1.436
x1 = 0.02631 | 1.793
x1 = 0.03478 | 2.235

COCCOCCOC + O
Details | viscosity [mPa·s]
298.15 K, 101 kPa, x1 = 0.021 | 1.36
298.15 K, 101 kPa, x1 = 0.04611 | 2.03
298.15 K, 101 kPa, x1 = 0.08173 | 2.84
298.15 K, 101 kPa, x1 = 0.135 | 3.11
298.15 K, 101.32 kPa, x1 = 0.0104 | 1.16
298.15 K, 101.32 kPa, x1 = 0.0199 | 1.362
298.15 K, 101.32 kPa, x1 = 0.0677 | 2.567
298.15 K, 101.32 kPa, x1 = 0.1 | 2.959
298.15 K, 101.32 kPa, x1 = 0.1492 | 3.175
298.15 K, 101.32 kPa, x1 = 0.1978 | 2.936
298.15 K, 101.32 kPa, x1 = 0.2959 | 2.342
298.15 K, 101.32 kPa, x1 = 0.4011 | 1.881
298.15 K, 101.32 kPa, x1 = 0.4988 | 1.552
298.15 K, 101.32 kPa, x1 = 0.577 | 1.398
298.15 K, 101.32 kPa, x1 = 0.8569 | 1.084
298.15 K, 101.33 kPa, x1 = 0.0091 | 1.139
298.15 K, 101.33 kPa, x1 = 0.0188 | 1.403
298.15 K, 101.33 kPa, x1 = 0.0295 | 1.691
298.15 K, 101.33 kPa, x1 = 0.051 | 2.246
298.15 K, 101.33 kPa, x1 = 0.0854 | 2.993
298.15 K, 101.33 kPa, x1 = 0.1194 | 3.328
298.15 K, 101.33 kPa, x1 = 0.1604 | 3.232
298.15 K, 101.33 kPa, x1 = 0.2099 | 2.993
298.15 K, 101.33 kPa, x1 = 0.2597 | 2.661
298.15 K, 101.33 kPa, x1 = 0.3028 | 2.389
298.15 K, 101.33 kPa, x1 = 0.3461 | 2.153
298.15 K, 101.33 kPa, x1 = 0.3843 | 1.982
298.15 K, 101.33 kPa, x1 = 0.4327 | 1.791
298.15 K, 101.33 kPa, x1 = 0.4651 | 1.691
298.15 K, 101.33 kPa, x1 = 0.5196 | 1.536
298.15 K, 101.33 kPa, x1 = 0.608 | 1.356
298.15 K, 101.33 kPa, x1 = 0.659 | 1.272
298.15 K, 101.33 kPa, x1 = 0.7695 | 1.145
298.15 K, 101.33 kPa, x1 = 0.8171 | 1.103
298.15 K, 101.33 kPa, x1 = 0.8712 | 1.066
298.15 K, 101.33 kPa, x1 = 0.9453 | 1.024
303.15 K, 101 kPa, x1 = 0.021 | 1.19
303.15 K, 101 kPa, x1 = 0.04611 | 1.71
303.15 K, 101 kPa, x1 = 0.08173 | 2.35
303.15 K, 101 kPa, x1 = 0.135 | 2.62
313.15 K, 101 kPa, x1 = 0.021 | 0.94
313.15 K, 101 kPa, x1 = 0.04611 | 1.27
313.15 K, 101 kPa, x1 = 0.08173 | 1.75
313.15 K, 101 kPa, x1 = 0.135 | 1.93
323.15 K, 101 kPa, x1 = 0.021 | 0.78
323.15 K, 101 kPa, x1 = 0.04611 | 1.01
323.15 K, 101 kPa, x1 = 0.08173 | 1.34
323.15 K, 101 kPa, x1 = 0.135 | 1.46

COC[N+]1(C)CCCC1.O=S(=O)([N-]S(=O)(=O)C(F)(F)F)C(F)(F)F + O
101 kPa, x2 = 0.1527
Details | viscosity [mPa·s]
293.15 K | 35.2
298.15 K | 29.4
303.15 K | 24.8
313.15 K | 18.1
323.15 K | 13.8

C[N+](C)(C)CCO.O=C([O-])C(F)(F)F + O
Details | viscosity [mPa·s]
298 K, 101.33 kPa, x2 = 0.8 | 7.7

O=S(=O)([O-])[O-].[Li+].[Li+] + O
Details | viscosity
293.15 K, 101 kPa, x1 = 0.007256 | 1.26 mPa·s
293.15 K, 101 kPa, x1 = 0.01412 | 1.55 mPa·s
293.15 K, 101 kPa, x1 = 0.02103 | 1.89 mPa·s
293.15 K, 101 kPa, x1 = 0.02766 | 2.31 mPa·s
293.15 K, 101 kPa, x1 = 0.03404 | 2.82 mPa·s
293.15 K, 101 kPa, x1 = 0.04479 | 4.02 mPa·s
293.15 K, 101 kPa, x1 = 0.05103 | 5.05 mPa·s
293.15 K, 101 kPa, x1 = 0.05234 | 5.28 mPa·s
293.15 K, 101 kPa, x1 = 0.05329 | 5.47 mPa·s
293.15 K, 101 kPa, x1 = 0.05449 | 5.71 mPa·s
298.15 K, 101 kPa, x1 = 0.007256 | 1.12 mPa·s
298.15 K, 101 kPa, x1 = 0.00868 | 1.152 mPa·s and 1.152 mPa·s
298.15 K, 101 kPa, x1 = 0.01412 | 1.38 mPa·s
298.15 K, 101 kPa, x1 = 0.02103 | 1.69 mPa·s
298.15 K, 101 kPa, x1 = 0.02192 | 1.705 mPa·s and 1.705 mPa·s
298.15 K, 101 kPa, x1 = 0.02766 | 2.05 mPa·s
298.15 K, 101 kPa, x1 = 0.03404 | 2.49 mPa·s
298.15 K, 101 kPa, x1 = 0.03935 | 2.947 mPa·s and 2.947 mPa·s
298.15 K, 101 kPa, x1 = 0.04479 | 3.49 mPa·s
298.15 K, 101 kPa, x1 = 0.05103 | 4.36 mPa·s
298.15 K, 101 kPa, x1 = 0.05234 | 4.57 mPa·s
298.15 K, 101 kPa, x1 = 0.05329 | 4.71 mPa·s
298.15 K, 101 kPa, x1 = 0.05449 | 4.95 mPa·s
298.15 K, 101.33 kPa, x1 = 0.05143 | 2.05 mPa·s
298.15 K, 101.33 kPa, x1 = 0.05627 | 3.659 mPa·s
300.15 K, 101 kPa, x1 = 0.05329 | 4.47 mPa·s
300.15 K, 101 kPa, x1 = 0.05449 | 4.7 mPa·s
303.15 K, 101 kPa, x1 = 0.007256 | 0.99 mPa·s
303.15 K, 101 kPa, x1 = 0.01412 | 1.22 mPa·s
303.15 K, 101 kPa, x1 = 0.02103 | 1.51 mPa·s
303.15 K, 101 kPa, x1 = 0.02766 | 1.82 mPa·s
303.15 K, 101 kPa, x1 = 0.03404 | 2.21 mPa·s
303.15 K, 101 kPa, x1 = 0.04479 | 3.06 mPa·s
303.15 K, 101 kPa, x1 = 0.05103 | 3.81 mPa·s
303.15 K, 101 kPa, x1 = 0.05234 | 3.99 mPa·s
303.15 K, 101 kPa, x1 = 0.05329 | 4.11 mPa·s
303.15 K, 101 kPa, x1 = 0.05449 | 4.3 mPa·s
305.15 K, 101 kPa, x1 = 0.05329 | 3.89 mPa·s
305.15 K, 101 kPa, x1 = 0.05449 | 4.1 mPa·s
308.15 K, 101 kPa, x1 = 0.05103 | 3.33 mPa·s
308.15 K, 101 kPa, x1 = 0.05234 | 3.49 mPa·s
308.15 K, 101 kPa, x1 = 0.05329 | 3.57 mPa·s
310.15 K, 101 kPa, x1 = 0.05329 | 3.39 mPa·s
311.15 K, 101 kPa, x1 = 0.05234 | 3.25 mPa·s
312.15 K, 101 kPa, x1 = 0.05329 | 3.24 mPa·s
313.15 K, 101 kPa, x1 = 0.007256 | 0.8 mPa·s
313.15 K, 101 kPa, x1 = 0.01412 | 0.99 mPa·s
313.15 K, 101 kPa, x1 = 0.02103 | 1.21 mPa·s
313.15 K, 101 kPa, x1 = 0.02766 | 1.49 mPa·s
313.15 K, 101 kPa, x1 = 0.03404 | 1.76 mPa·s
313.15 K, 101 kPa, x1 = 0.04479 | 2.42 mPa·s
313.15 K, 101 kPa, x1 = 0.05103 | 2.96 mPa·s
313.15 K, 101 kPa, x1 = 0.05234 | 3.1 mPa·s
313.15 K, 101 kPa, x1 = 0.05329 | 3.17 mPa·s
314.15 K, 101 kPa, x1 = 0.05329 | 3.11 mPa·s
316.15 K, 101 kPa, x1 = 0.05234 | 2.89 mPa·s
318.15 K, 101 kPa, x1 = 0.05103 | 2.65 mPa·s
318.15 K, 101 kPa, x1 = 0.05234 | 2.77 mPa·s
320.15 K, 101 kPa, x1 = 0.05234 | 2.66 mPa·s
323.15 K, 101 kPa, x1 = 0.00868 | 0.7 mPa·s
323.15 K, 101 kPa, x1 = 0.02192 | 1.014 mPa·s
323.15 K, 101 kPa, x1 = 0.03935 | 1.669 mPa·s
323.15 K, 101 kPa, x1 = 0.05103 | 2.37 mPa·s
323.15 K, 101 kPa, x1 = 0.05234 | 2.52 mPa·s
323.15 K, 101.33 kPa, x1 = 0.05088 | 1.378 mPa·s
